Experimental data reported in article PMC3914206.

Tests used:
Type in all cases: binding
Design in all cases: KINOMEscan: ABL1(F317L)-phosphorylated / KINOMEscan: ABL1(H396P)-nonphosphorylated / KINOMEscan: ABL1(H396P)-phosphorylated / KINOMEscan: ABL1(M351T)-phosphorylated / KINOMEscan: ABL1(T315I)-phosphorylated / KINOMEscan: ABL1-nonphosphorylated / KINOMEscan: ABL1-phosphorylated / KINOMEscan: ACVR2A / KINOMEscan: ACVR2B / KINOMEscan: ADCK3 / KINOMEscan: ADCK4 / KINOMEscan: AKT1 / KINOMEscan: AKT3 / KINOMEscan: ALK / KINOMEscan: ARK5 / KINOMEscan: AURKA / KINOMEscan: AURKC / KINOMEscan: BIKE / KINOMEscan: BMPR1A / KINOMEscan: BMPR1B / KINOMEscan: BMX / KINOMEscan: BRK / KINOMEscan: BRSK1 / KINOMEscan: BRSK2 / KINOMEscan: CAMK1 / KINOMEscan: CAMK1D / KINOMEscan: CAMK1G / KINOMEscan: CAMK2A / KINOMEscan: CAMK2B / KINOMEscan: AAK1 / KINOMEscan: CAMK2D / KINOMEscan: CAMK2G / KINOMEscan: ABL1(F317I)-nonphosphorylated / KINOMEscan: ABL1(F317I)-phosphorylated / KINOMEscan: ABL1(F317L)-nonphosphorylated: unit: % Ctrl
Details in all cases: Compound Concentration 10 µM
[1] = target: T1, panel of 442 kinases (Homo sapiens, UniProt Q13554)
T1 construct: purchased KINOMEscan
Source text: (§1) We assessed the selectivity of members of this scaffold using the KINOMEscan methodology across a near comprehensive panel of 442 kinases [[18,27]].

[2] = target: T2, panel of 442 kinases (Homo sapiens, UniProt P08069)
T2 construct: purchased KINOMEscan
Source text: as §1

[3] = target: T3, panel of 442 kinases (Homo sapiens, UniProt P42685)
T3 construct: purchased KINOMEscan
Source text: as §1

[4] = target: T4, panel of 442 kinases (Plasmodium falciparum, UniProt P61075)
T4 construct: purchased KINOMEscan
Source text: as §1

T4 sequence (P61075 whole entry): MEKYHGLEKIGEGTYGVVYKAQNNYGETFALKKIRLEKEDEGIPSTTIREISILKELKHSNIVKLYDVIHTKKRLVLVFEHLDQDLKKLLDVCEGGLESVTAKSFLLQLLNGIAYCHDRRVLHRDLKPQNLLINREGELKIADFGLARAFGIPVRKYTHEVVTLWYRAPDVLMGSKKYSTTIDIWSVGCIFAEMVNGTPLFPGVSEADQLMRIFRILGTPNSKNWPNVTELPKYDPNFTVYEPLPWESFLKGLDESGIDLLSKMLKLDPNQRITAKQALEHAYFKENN
T2 sequence (P08069 31-1367): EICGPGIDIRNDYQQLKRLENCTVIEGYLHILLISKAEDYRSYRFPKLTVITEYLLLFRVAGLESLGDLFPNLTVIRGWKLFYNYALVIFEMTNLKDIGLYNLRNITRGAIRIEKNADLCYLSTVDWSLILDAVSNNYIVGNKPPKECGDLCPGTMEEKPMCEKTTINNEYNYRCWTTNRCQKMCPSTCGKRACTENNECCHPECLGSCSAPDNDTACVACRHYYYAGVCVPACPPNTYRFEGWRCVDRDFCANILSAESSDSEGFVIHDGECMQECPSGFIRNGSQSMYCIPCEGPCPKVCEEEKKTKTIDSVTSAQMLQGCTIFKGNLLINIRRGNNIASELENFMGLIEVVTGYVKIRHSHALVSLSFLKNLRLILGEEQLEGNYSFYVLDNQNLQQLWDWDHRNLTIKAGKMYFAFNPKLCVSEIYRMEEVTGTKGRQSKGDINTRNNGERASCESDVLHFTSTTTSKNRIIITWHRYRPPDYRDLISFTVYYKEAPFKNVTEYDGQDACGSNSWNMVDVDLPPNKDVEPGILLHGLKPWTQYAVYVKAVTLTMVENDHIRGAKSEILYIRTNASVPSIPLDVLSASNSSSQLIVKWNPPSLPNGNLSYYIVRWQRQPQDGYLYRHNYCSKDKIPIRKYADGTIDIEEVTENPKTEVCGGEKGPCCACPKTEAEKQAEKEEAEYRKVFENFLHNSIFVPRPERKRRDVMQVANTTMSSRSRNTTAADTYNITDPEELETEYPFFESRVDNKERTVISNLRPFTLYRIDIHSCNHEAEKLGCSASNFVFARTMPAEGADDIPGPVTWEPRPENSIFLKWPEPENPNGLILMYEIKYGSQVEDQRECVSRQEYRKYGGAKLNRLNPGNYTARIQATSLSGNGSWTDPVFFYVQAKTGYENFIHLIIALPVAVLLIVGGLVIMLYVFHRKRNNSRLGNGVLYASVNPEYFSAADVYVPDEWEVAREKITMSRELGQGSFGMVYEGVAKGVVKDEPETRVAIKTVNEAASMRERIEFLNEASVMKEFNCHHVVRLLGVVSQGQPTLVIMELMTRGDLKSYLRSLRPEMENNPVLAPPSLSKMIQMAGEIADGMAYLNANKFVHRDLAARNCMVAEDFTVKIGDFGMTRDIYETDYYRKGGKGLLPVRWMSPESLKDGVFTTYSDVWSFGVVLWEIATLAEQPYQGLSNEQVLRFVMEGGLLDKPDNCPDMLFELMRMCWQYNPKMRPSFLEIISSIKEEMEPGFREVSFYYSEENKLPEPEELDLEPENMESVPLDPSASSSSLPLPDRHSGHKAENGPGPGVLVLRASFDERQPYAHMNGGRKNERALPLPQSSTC
T3 sequence (P42685 whole entry): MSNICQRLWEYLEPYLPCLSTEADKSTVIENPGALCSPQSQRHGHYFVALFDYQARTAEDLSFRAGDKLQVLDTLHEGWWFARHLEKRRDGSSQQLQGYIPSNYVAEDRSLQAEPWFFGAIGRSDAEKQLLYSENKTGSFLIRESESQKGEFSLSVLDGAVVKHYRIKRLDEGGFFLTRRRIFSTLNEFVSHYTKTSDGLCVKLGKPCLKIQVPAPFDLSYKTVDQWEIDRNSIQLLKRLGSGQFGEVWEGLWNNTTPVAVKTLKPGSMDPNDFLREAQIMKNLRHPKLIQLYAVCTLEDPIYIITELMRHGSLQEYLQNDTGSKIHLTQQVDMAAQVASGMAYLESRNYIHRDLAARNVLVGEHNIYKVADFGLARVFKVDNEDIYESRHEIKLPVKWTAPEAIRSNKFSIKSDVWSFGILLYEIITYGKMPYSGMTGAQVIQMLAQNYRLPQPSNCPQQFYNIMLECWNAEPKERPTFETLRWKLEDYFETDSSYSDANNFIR
T1 sequence (Q13554 whole entry): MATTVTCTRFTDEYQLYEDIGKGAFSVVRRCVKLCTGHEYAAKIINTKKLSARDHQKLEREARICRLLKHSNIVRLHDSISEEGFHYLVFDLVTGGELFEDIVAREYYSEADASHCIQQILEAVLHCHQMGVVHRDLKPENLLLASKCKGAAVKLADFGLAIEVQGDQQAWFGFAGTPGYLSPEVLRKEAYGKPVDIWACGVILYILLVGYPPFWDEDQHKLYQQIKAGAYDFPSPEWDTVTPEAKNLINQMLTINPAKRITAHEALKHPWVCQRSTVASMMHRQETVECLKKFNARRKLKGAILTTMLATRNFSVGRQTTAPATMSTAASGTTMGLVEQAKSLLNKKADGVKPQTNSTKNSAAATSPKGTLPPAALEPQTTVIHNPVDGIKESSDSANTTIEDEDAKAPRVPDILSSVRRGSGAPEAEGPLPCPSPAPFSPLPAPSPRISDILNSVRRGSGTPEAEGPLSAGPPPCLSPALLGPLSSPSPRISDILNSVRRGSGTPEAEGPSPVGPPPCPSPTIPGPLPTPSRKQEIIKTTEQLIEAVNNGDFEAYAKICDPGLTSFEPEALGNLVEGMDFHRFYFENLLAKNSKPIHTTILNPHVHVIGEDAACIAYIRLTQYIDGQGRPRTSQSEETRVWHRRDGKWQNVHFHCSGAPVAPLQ

COc1cc(C(=O)N2CCC(N3CCN(C)CC3)CC2)ccc1Nc1ncc2c(n1)N(C)c1ccccc1C(=O)N2C [15 (LRRK2-IN-1)]
KINOMEscan: CAMK2B [1]: 62
KINOMEscan: IGF1R [2]: 96
KINOMEscan: FRK [3]: 34
KINOMEscan: PFPK5(P.falciparum) [4]: 100

CCOc1cc(C(=O)N2CCC(N3CCN(C)CC3)CC2)ccc1Nc1ncc2c(n1)N(C1CCCC1)c1ccccc1C(=O)N2C [Compound 26]
KINOMEscan: CAMK2B [1]: 78
KINOMEscan: IGF1R [2]: 100
KINOMEscan: FRK [3]: 87
KINOMEscan: PFPK5(P.falciparum) [4]: 100

COc1cc(C(=O)N2CCC(N3CCN(C)CC3)CC2)ccc1Nc1ncc2c(n1)N1CCc3cccc(c31)C(=O)N2C [Compound 24]
KINOMEscan: CAMK2B [1]: 62
KINOMEscan: FRK [3]: 56
KINOMEscan: PFPK5(P.falciparum) [4]: 92

COc1cc(C(=O)N2CCC(N3CCN(C)CC3)CC2)ccc1Nc1ncc2c(n1)N(C1CCCC1)c1ccccc1C(=O)N2C [Compound 25, 11-cyclopentyl-2-((2-methoxy-4-(4-(4-methylpiperazin-1-yl)piperidine-1-carbonyl)phenyl)amino)-5-methyl-5H-benzo[e]pyrimido[5,4-b][1,4]diazepin-6(11H)-one]
KINOMEscan: CAMK2B [1]: 80
KINOMEscan: IGF1R [2]: 89
KINOMEscan: FRK [3]: 24
KINOMEscan: PFPK5(P.falciparum) [4]: 85
